According to patent publication EP4049726A1, “IMIDAZO[1,2-A]PYRAZINES AS INHIBITORS OF HASPIN AND THERAPEUTIC USES THEREOF” (Fundación del Sector Público Estatal Centro Nacional de …, priority 2021, dated 2022):

Legend:
HASPIN [1] = biological target: T1, HASPIN (Homo sapiens, UniProt Q8TF76); assay: HASPIN biochemical assay (ADP-Glo, HASPIN autophosphorylation); conditions: ATP 150 µM, 60 min at 30 °C
T1 sequence (Q8TF76 1-798): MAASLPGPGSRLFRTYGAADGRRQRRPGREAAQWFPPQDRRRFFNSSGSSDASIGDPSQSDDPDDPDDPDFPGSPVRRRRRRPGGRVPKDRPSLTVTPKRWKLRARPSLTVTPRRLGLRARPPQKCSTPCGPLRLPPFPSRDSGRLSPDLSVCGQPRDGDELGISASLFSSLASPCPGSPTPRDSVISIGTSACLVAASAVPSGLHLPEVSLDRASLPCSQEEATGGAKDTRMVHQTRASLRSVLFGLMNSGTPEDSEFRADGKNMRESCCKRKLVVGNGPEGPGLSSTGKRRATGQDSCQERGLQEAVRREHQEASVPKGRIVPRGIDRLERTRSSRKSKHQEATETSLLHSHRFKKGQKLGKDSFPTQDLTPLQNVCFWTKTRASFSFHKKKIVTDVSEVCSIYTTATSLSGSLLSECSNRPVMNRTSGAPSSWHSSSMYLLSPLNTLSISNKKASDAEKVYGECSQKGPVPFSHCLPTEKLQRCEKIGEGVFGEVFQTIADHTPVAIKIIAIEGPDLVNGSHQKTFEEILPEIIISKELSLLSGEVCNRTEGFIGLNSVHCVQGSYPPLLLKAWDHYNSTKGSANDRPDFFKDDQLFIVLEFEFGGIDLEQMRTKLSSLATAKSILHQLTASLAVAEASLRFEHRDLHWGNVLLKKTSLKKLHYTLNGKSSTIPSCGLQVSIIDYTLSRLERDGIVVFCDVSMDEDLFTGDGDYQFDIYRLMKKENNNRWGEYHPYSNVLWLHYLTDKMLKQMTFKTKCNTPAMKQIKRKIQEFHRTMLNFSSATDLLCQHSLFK
Procedure: HASPIN biochemical Assay: The biochemical assay to measure HASPIN activity relies on the ADP-Glo™ assay kit (Promega) that determines the amount of ADP as direct product of the kinase enzyme activity. Assay conditions were as indicated by the kit manufacturers with the following adaptations for the kinase activity step: Kinase assay buffer and assay volume (15 mM HEPES pH 7.5, 20 mM NaCl, 1 mM EGTA, 0.02% TWEEN 20, 10 mM MgCl2, 0.1 mg/mL BGG)/25 µL assay volume). Incubation time and temperature: 60 min at 30 °C. HASPIN final concentration: 0.9 µg/mL. ATP final concentration: 150 µM. HASPIN autophosphorylation was measured. Assays were performed in 384-well plates. The final outcome of the coupled reactions provided by the kit is the release of […] and has been measured with a multilabel HTS counter Victor V / Envision. Values were normalized against the control activity included (100% HASPIN activity, without compound). Values were plotted against the inhibitor concentration and fit to a sigmoid dose-response curve using Activity base by IDBS software.

HASPIN [2] = biological target: T1, HASPIN; assay: Cellular HASPIN inhibition assay (phosphorylation of H3T3, western blot); format: cell-based; conditions: MV4:11 cells, 8 hours of treatment, read-out: pH3T3 EC50
Procedure: Cellular HASPIN Inhibition Assay (phosphorylation of H3T3): Compounds can be screened for their ability to inhibit intracellular HASPIN using a western blot assay to detect phosphorylation of the HASPIN substrate H3T3 in synchronized cells. MV4:11 cells are plated at 400000 cells per well in 6-well plates in RPMI media supplemented with 10% foetal bovine serum, Penicillin/Streptomycin solution diluted 1: 100, and fungizone, and allowed to adhere overnight at 37 °C in 5% CO2. Then, compounds are added to the cell media from a final concentration of 10 µM in 10-fold serial dilutions and the cells are incubated at 37 °C in 5% CO2. After 8 hours of treatment with the compounds, the cells are washed in PBS, lysed adding 100 µl of protein lysis buffer (62.5 mM Tris pH 6.8 al 6.25%, 2% SDS y 10% glycerol) incubation 10 minutes at room temperature and heating at 95 °C 10 min. The protein content of the lysates is determined by DC protein assay. The proteins are resolved by SDS-PAGE and transferred to nitrocellulose membrane. The membranes are incubated overnight at 4 °C with antibodies specific for H3, phosphothreonine-3 H3 they are washed and then incubated with IRDye800 conjugated antimouse and Alexa Fluor 680 goat anti-rabbit IgG secondary antibodies. The bands are visualized and quantified using an Odyssey infrared imaging system. The percentage of H3 phosphorylation is finally plotted against concentration for each compound and EC50s for intracellular HASPIN inhibition are calculated using a software platform for screening data management.

CNC(=O)c1cn2cc(-c3ccncc3)nc(NCC3CCNCC3)c2n1 [Compound 4, 8-[(Piperidin-4-ylmethyl)-amino]-6-pyridin-4-yl-imidazo[1,2-a]pyrazine-2-carboxylic acid methylamide]
IC50 (HASPIN [1]): 20.4 nM | EC50 (HASPIN [2]): < 50 nM

N#CC1(CNc2nc(-c3ccncc3)cn3cc(C(N)=O)nc23)CCNCC1 [Compound 8, 8-[(4-Cyano-piperidin-4-ylmethyl)-amino]-6-pyridin-4-yl-imidazo[1,2-a]pyrazine-2-carboxylic acid amide]
IC50 (HASPIN [1]): 19.7 nM | EC50 (HASPIN [2]): < 50 nM

NC(=O)c1cn2cc(-c3ccnc(Cl)c3)nc(NCC3CCNCC3)c2n1 [Compound 3, 6-(2-Chloro-pyridin-4-yl)-8-[(piperidin-4-ylmethyl)-amino]-imidazo[1,2-a]pyrazine-2-carboxylic acid amide]
IC50 (HASPIN [1]): 45.2 nM | EC50 (HASPIN [2]): < 50 nM

Cc1cc(-c2cn3cc(C(N)=O)nc3c(NCC3CCNCC3)n2)ccn1 [Compound 36, 6-(2-Methyl-pyridin-4-yl)-8-[(piperidin-4-ylmethyl)-amino]-imidazo[1,2-a]pyrazine-2-carboxylic acid amide]
IC50 (HASPIN [1]): 24.6 nM | EC50 (HASPIN [2]): < 50 nM

NC(=O)c1cn2cc(-c3ccncc3F)nc(NCC3CCNCC3)c2n1 [Compound 27, 6-(3-Fluoro-pyridin-4-yl)-8-[(piperidin-4-ylmethyl)-amino]-imidazo[1,2-a]pyrazine-2-carboxylic acid amide]
IC50 (HASPIN [1]): 9.42 nM | EC50 (HASPIN [2]): < 50 nM

CNC(=O)c1cn2cc(-c3ccncc3F)nc(NCC3(C#N)CCNCC3)c2n1 [Compound 32, 8-[(4-Cyano-piperidin-4-ylmethyl)-amino]-6-(3-fluoro-pyridin-4-yl)-imidazo[1,2-a]pyrazine-2-carboxylic acid methylamide]
IC50 (HASPIN [1]): 7.63 nM | EC50 (HASPIN [2]): < 50 nM

NC(=O)c1cn2cc(-c3ccncc3F)nc(NCC3(F)CCNCC3)c2n1 [Compound 33, 8-[(4-Fluoro-piperidin-4-ylmethyl)-amino]-6-(3-fluoro-pyridin-4-yl)-imidazo[1,2-a]pyrazine-2-carboxylic acid amide]
IC50 (HASPIN [1]): 10.5 nM | EC50 (HASPIN [2]): < 50 nM
